We go through 32 compounds from patent US8772290B2, “Alpha-arylmethoxyacrylate derivative, preparation method thereof, and pharmaceutical composition containing same” (Oscotech Inc., priority 2010, dated 2014).

This experiment relates to HIF. Nature of the experiment: Assay for inhibitory activity against HIF activity (HIF1 luciferase reporter cell line). The format is cell-based, human. The note with it: Homo sapiens; HEK293 HIF1 reporter cell line, 1% oxygen, 6 hours, luciferase activity 50% inhibited. From the text:
In order to assay the compounds of the present invention for inhibitory activity against HIF activity, the HIF1 reporter plasmid (Panomics) that is designed to control the expression of luciferase by HIF was employed. The HIF1 reporter plasmid and the pTK-Hyg plasmid (Clontech), which carries a hygromycin resistant gene, were co-transfected into the HEK293 cell line (the Korean Cell Line Bank, KCLB No. 21573), derived from the human kidney, with the aid of Effectene transfection reagent (Qiagen). Then, the cells were cultured for 3 weeks on a medium containing 200 μg/mL hygromycin to select transformants resistant to hygromycin. The cell colonies derived from single cells were transferred to 24-well plates to secure a reporter cell line. The cells were seeded at a density of 4×10^4 cells/well into 96-well plates containing DMEM and incubated for 24 hours before treatment with the compounds of the present invention at a concentration of 25 μM, 5 μM, 1 μM, 200 nM, 40 nM, 8 nM, 1.6 nM, 320 pM, 64 pM, 12.8 pM, 2.56 pM, 512 fM, 102 fM, 20.4 fM, or an amount between any two concentrations above as shown in FIGS. 1A to 1C. Under 1% oxygen condition, the cells were incubated for 6 hours and then, the medium was removed. The cells were lyzed by incubation for 5 min with 100 μL of the mixture of Bright-Glo™ luciferase assay buffer and Bright-Glo™ luciferase assay substrate (Promega). The whole cell lysate was transferred to 96-well, white plates (PerkinElmer) and measured for luminescence using Victor™ 3 (PerkinElmer). From the luminescence measurements, IC50 (a concentration of the compound at which luciferase activity was 50% inhibited) was calculated using the GraphPad Prism™ 4 program. The results are summarized in Table 2 and illustrated in FIGS. 1A to 1C.
A general note: In a reporter assay the amount or activity of a reporter protein is the signal.
As usually defined, the IC50 is the concentration that inhibits the measured activity by half. As to `CO/C=C(/C(=O)OC)c1ccccc1COc1cc(F)cc(OCCOc2ccccc2)c1` [Compound 22, (E)-methyl 2-(2-((3-fluoro-5-(2-phenoxyethoxy)phenoxy)methyl)phenyl)-3-methoxyacrylate], inhibition was half-maximal at 0.26 µM (IC50).

Compound `CCCO/N=C/c1ccc(OCc2ccccc2/C(=C\OC)C(=O)OC)c(C)c1` [Compound 32, (E)-methyl 2-(2-((2-methyl-4-((E)-(propoxyimino)methyl)phenoxy)-methyl)phenyl)-3-methoxyacrylate] returned a half-inhibitory concentration (IC50) of 0.02 µM. Against the preceding compound, the IC50 is about 13-fold lower.

The compound `CCCO/N=C(\CC)c1cccc(OCc2ccccc2/C(=C\OC)C(=O)OC)c1` [Compound 7, (E)-methyl 2-(2-((3-((E)-1-(propoxyimino)propyl)phenoxy)methyl)-phenyl)-3-methoxyacrylate] registered an IC50 of 5.07 µM.

The compound `CCCO/N=C(\CC)c1cc(C)c(OCc2ccccc2/C(=C\OC)C(=O)OC)cc1C` [Compound 1, (E)-methyl 2-(2-((2,5-dimethyl-4-((E)-1-(propoxyimino)propyl)phenoxy)-methyl)phenyl)-3-methoxyacrylate] came in with a concentration for half-maximal inhibition (IC50) of 0.001 µM.

The compound `CO/C=C(/C(=O)OC)c1ccccc1COc1ccc(/C=N/OC2CCCC2)cc1C` [Compound 70, (E)-methyl 2-(2-((4-((E)-(cyclopentyloxyimino)methyl)-2-methylphenoxy)methyl)phenyl)-3-methoxyacrylate] had an IC50 of 0.18 µM.

Regarding `CO/C=C(/C(=O)OC)c1ccccc1COc1ccc(/C=N/OCc2ccccc2)cc1C` [Compound 33, (E)-methyl 2-(2-((4-((E)-(benzyloxyimino)methyl)-2-methylphenoxy)-methyl)phenyl)-3-methoxyacrylate], the IC50 worked out at 0.21 µM.

`CO/C=C(/C(=O)OC)c1ccccc1COc1cc(O)cc(F)c1` [Compound 15, (E)-methyl 2-(2-((3-fluoro-5-hydroxyphenoxy)methyl)phenyl)-3-methoxyacrylate] registered an IC50 of 3.72 µM.

`CO/C=C(/C(=O)OC)c1ccccc1COc1cc(F)cc(OCc2ccccn2)c1` [Compound 23, (E)-methyl 2-(2-((3-fluoro-5-(pyridin-2-ylmethoxy)phenoxy)methyl)-phenyl)-3-methoxyacrylate] registered an IC50 of 0.23 µM. This IC50 is about 16-fold lower than that of the compound before.

`CO/C=C(/C(=O)OC)c1ccccc1COc1cc(C)c(/C=N/OCc2ccccc2)cc1C` [Compound 50, (E)-methyl 2-(2-((4-((E)-(benzyloxyimino)methyl)-2,5-dimethylphenoxy)-methyl)phenyl)-3-methoxyacrylate]: the IC50 came to 0.07 µM.

`CO/C=C(/C(=O)OC)c1ccccc1COc1cc(C)cc(OCc2ccccc2)c1C` [Compound 41, (E)-methyl 2-(2-((3-(benzyloxy)-2,5-dimethylphenoxy)methyl)phenyl)-3-methoxyacrylate] returned an IC50 of 6.12 µM.

`CO/C=C(/C(=O)OC)c1ccccc1COc1cc(C)c(/C(C)=N/OC)cc1C` [Compound 77, (E)-methyl 2-(2-((2,5-dimethyl-4-((E)-1-(methoxyimino)ethyl)phenoxy)-methyl)phenyl)-3-methoxyacrylate] gave a half-inhibitory concentration (IC50) of 0.02 µM.

As for `CCCO/N=C(\C)c1ccc(OC)c(OCc2ccccc2/C(=C\OC)C(=O)OC)c1` [Compound 42, (E)-methyl 2-(2-((2-methoxy-5-((E)-1-(propoxyimino)ethyl)phenoxy)-methyl)phenyl)-3-methoxyacrylate], the half-inhibitory concentration (IC50) is 5.07 µM. Compared with the last compound, the IC50 is about 250-fold higher.

The compound `CO/C=C(/C(=O)OC)c1ccccc1COc1cc(C)c(-c2ccn(C)n2)cc1C` [Compound 82, (E)-methyl 3-methoxy-2-(2-((2,5-dimethyl-4-(1-methyl-1H-pyrazol-3-yl)phenoxy)methyl)phenyl)acrylate] returned an IC50 of 0.002 µM. Compared with the last compound, the IC50 is about 2500-fold lower.

As to `CO/C=C(/C(=O)OC)c1ccccc1COc1cc(/C(C)=N/OCc2ccc(C)cc2)ccc1OC` [Compound 57, (E)-methyl 2-(2-((2-methoxy-5-((E)-1-(4-methylbenzyloxyimino)ethyl)-phenoxy)methyl)phenyl)-3-methoxyacrylate], the 50% inhibitory concentration (IC50) is 3.94 µM.

Regarding `CO/C=C(/C(=O)OC)c1ccccc1COc1cccc(OCC[N+]2([O-])CCOCC2)c1` [Compound 13, (E)-4-(2-(3-(2-(1,3-dimethoxy-3-oxoprop-1-en-2-yl)benzyloxy)phenoxy)-ethyl)morpholine 4-oxide], 10 µM corresponded to half-maximal inhibition (IC50).

For the compound `CO/C=C(/C(=O)OC)c1ccccc1COc1cc(C)c(/C=N/Oc2ccccc2)cc1C` [Compound 63, (E)-methyl 2-(2-((2,5-dimethyl-4-((E)-(phenoxyimino)methyl)phenoxy)-methyl)phenyl)-3-methoxyacrylate], the IC50 came to 0.04 µM.

As for `CO/C=C(/C(=O)OC)c1ccccc1COc1cc(O)cc(OCc2ccncc2)c1` [Compound 29, (E)-methyl 2-(2-((3-hydroxy-5-(pyridin-4-ylmethoxy)phenoxy)methyl)-phenyl)-3-methoxyacrylate], the half-inhibitory concentration (IC50) is 11 µM.

Regarding `CO/C=C(/C(=O)OC)c1ccccc1COc1ccc(F)c(OCc2ccccc2)c1F` [Compound 62, (E)-methyl 2-(2-((3-(benzyloxy)-2,4-difluorophenoxy)methyl)phenyl)-3-methoxyacrylate], inhibition was half-maximal at 0.2 µM (IC50).

As to `CO/C=C(/C(=O)OC)c1ccccc1COc1cc(/C=N/Oc2ccccc2)ccc1OC` [Compound 46, (E)-methyl 2-(2-((2-methoxy-5-((E)-1-(phenoxyimino)methyl)phenoxy)-methyl)phenyl)-3-methoxyacrylate], half-maximal inhibition (IC50) required 0.17 µM.

In turn, `CCCOc1cc(C)cc(OCc2ccccc2/C(=C\OC)C(=O)OC)c1C` [Compound 40, (E)-methyl 2-(2-((2,5-dimethyl-3-propoxyphenoxy)methyl)phenyl)-3-methoxyacrylate] showed an IC50 of 12.6 µM.

Regarding `CO/C=C(/C(=O)OC)c1ccccc1COc1cc(C)cc(OCCOc2ccccc2)c1C` [Compound 56, (E)-methyl 2-(2-((2,5-dimethyl-3-(2-phenoxyethoxy)phenoxy)methyl)-phenyl)-3-methoxyacrylate], the IC50 turned out to be 2.14 µM. This IC50 lies about 5.9-fold lower than the previous one.

In the case of `CCCO/N=C/c1ccc(OC)c(OCc2ccccc2/C(=C\OC)C(=O)OC)c1` [Compound 43, (E)-methyl 2-(2-((2-methoxy-5-((E)-(propoxyimino)methyl)phenoxy)-methyl)phenyl)-3-methoxyacrylate], the IC50 was determined as 0.96 µM.

As for `CO/C=C(/C(=O)OC)c1ccccc1COc1cc(/C(C)=N/OCCc2ccccc2)ccc1OC` [Compound 44, (E)-methyl 2-(2-((2-methoxy-5-((E)-1-(phenylethoxyimino)ethyl)-phenoxy)methyl)phenyl)-3-methoxyacrylate], the concentration for half-maximal inhibition (IC50) was determined as 2.18 µM.

Regarding `CCCO/N=C/c1cc(F)c(OCc2ccccc2/C(=C\OC)C(=O)OC)c(OC)c1` [Compound 64, (E)-methyl 2-(2-((2-fluoro-6-methoxy-4-((E)-(propoxyimino)methyl)-phenoxy)methyl)phenyl)-3-methoxyacrylate], half-maximal inhibition (IC50) was put at 2.62 µM.

As to `CCCO/N=C(\C)c1ccc(OCc2ccccc2/C(=C\OC)C(=O)OC)cc1` [Compound 8, (E)-methyl 2-(2-((4-((E)-1-(propoxyimino)ethyl)phenoxy)methyl)phenyl)-3-methoxyacrylate], the half-maximal inhibitory concentration (IC50) is 1.11 µM. Against the preceding compound, the IC50 is about 2.4-fold lower.

`CO/C=C(/C(=O)OC)c1ccccc1COc1cccc(OCCc2ccccc2)c1` [Compound 16, (E)-methyl 2-(2-((3-phenethoxyphenoxy)methyl)phenyl)-3-methoxyacrylate] yielded an IC50 of 0.34 µM.

As to `CO/C=C(/C(=O)OC)c1ccccc1COc1ccc(/C(C)=N/OCCc2ccccc2)cc1` [Compound 18, (E)-methyl 2-(2-((4-((E)-1-(phenethoxyimino)ethyl)phenoxy)methyl)-phenyl)-3-methoxyacrylate], the concentration for half-maximal inhibition (IC50) came to 0.4 µM.

In the case of `CO/C=C(/C(=O)OC)c1ccccc1COc1cc(O)cc(OCc2ccccn2)c1` [Compound 28, (E)-methyl 2-(2-((3-hydroxy-5-(pyridin-2-ylmethoxy)phenoxy)methyl)-phenyl)-3-methoxyacrylate], the half-maximal inhibitory concentration (IC50) is 0.71 µM.

`CO/C=C(/C(=O)OC)c1ccccc1COc1cc(C)c(/C=N/OCCCOc2ccccc2)cc1C` [Compound 71, (E)-methyl 2-(2-((2,5-dimethyl-4-((E)-(3-phenoxypropyloxyimino)-methyl)phenoxy)methyl)phenyl)-3-methoxyacrylate]: the IC50 worked out at 0.02 µM.

The compound `CO/C=C(/C(=O)OC)c1ccccc1COc1cc(/C=N/OCc2ccc(C)cc2)ccc1OC` [Compound 58, (E)-methyl 2-(2-((2-methoxy-5-((E)-1-(4-methylbenzyloxyimino)methyl)-phenoxy)methyl)phenyl)-3-methoxyacrylate] yielded a half-inhibitory concentration (IC50) of 1.26 µM.

`CO/C=C(/C(=O)OC)c1ccccc1COc1cccc(O)c1` [Compound 5, (E)-methyl 2-(2-((5-hydroxyphenoxy)methyl)phenyl)-3-methoxyacrylate] came in with an IC50 of 1.99 µM.

Compound `CO/C=C(/C(=O)OC)c1ccccc1COc1cc(/C=N/OCCc2ccccc2)ccc1OC` [Compound 45, (E)-methyl 2-(2-((2-methoxy-5-((E)-1-(phenylethoxyimino)methyl)-phenoxy)methyl)phenyl)-3-methoxyacrylate] gave a half-inhibitory concentration (IC50) of 0.11 µM.
